Test system: erythrocytes
Assay: Intracellular access of the drugs in erythrocytes (LC-MS)
Assay type: in vitro ADME, human
Details: 30 min incubation, milrinone 10 µM, amrinone 100 µM, levosimendan 1 µM
Procedure: Fresh (<24 h) EDTA blood from healthy donors (n = 18) was obtained and washed with Krebs-Ringer-Phosphate-Buffer containing glucose (KRPB/G, pH 7.4) and centrifuged (10 min, 1,000 g) three consecutive times. Plasma and buffy coat were removed. KRPB/G was added to the cell solution to bring it to the ratio 1:2.5. Hematocrit (Hct) was measured and adjusted with additional buffer to reach 0.44, in order to give the final Hct of 0.40 in the incubation solution. […] The reaction was stopped by placing the test tubes on ice and adding 4 ml of ice cold KRFB/G. The samples were subsequently centrifugated (5 min, 600 g), then washed with KRFB/G once more and centrifugation was repeated twice. 50 µl of the remaining red blood cell suspension was transferred to Eppendorf tubes. 50 µl 500 nM IS-Milrinone-d3 was added as an internal standard (TLC Pharmaceutical Standards Ltd.). 200 µl ZnSO4 was added to each test sample, to induce lysis of the cells, and mixed in a vortex mixer. 30 µl of the samples were used for measurement of protein concentration, the rest was mixed with 500 µl acetonitrile and centrifugated (2 min, 13400 g). Finally, 100 µl of the solution was collected for analysis using mass spectrometry (MS).
Liquid chromatography tandem mass spectrometry (LC-MS) was used to assess concentrations of the inhibitors for experiments performed to determine intracellular access of these drugs, as well as to quantify levels of cAMP/AMP and cGMP/GMP for the PDE3-and PDE5-inhibition plots. Internal standards were used, as described previously. There was a linearity from 0.2 nM to at least 2000 nM (r^2 > 0.998) for cAMP, AMP, and cGMP. For GMP, linearity was present from 2 nM to at least 2000 nM (r^2 > 0.998). Concerning PDE3-inhibitors, the linearity was found at 10 nM to at least 5,000 nM (r^2 > 0.99). Lower limit of quantification (LLOQ) was 0.2 for cAMP, cGMP, and AMP, 2 nM for GMP and 10 nM for PDE3-inhibitors (2 µl injection volume).
Intracellular concentrations of drugs were adjusted for protein concentrations in each sample. The total incubation concentrations were also adjusted for protein concentrations to evaluate the degree of access in percentage. Statistical analysis was performed using one-way ANOVA with Holm-Sidak multiple comparisons post hoc test at each temperature. ANOVA on ranks with Dunn post hoc test was used when the results were not normally distributed. The results are presented as means ± standard error of mean (SEM). p-values < 0.05 were considered significant results. Degrees of freedom (dF) is given as between group values. SigmaPlot 14.0 (Systat Software, San Jose, CA, United States) was used for all analysis, as well as creating the graphs.

Row | SMILES | Intracellular access, % of drug concentration per gram protein in the incubation solution (28°C) | Intracellular access, % of drug concentration per gram protein in the incubation solution (34°C)
1 | Nc1cc(-c2ccncc2)c[nH]c1=O [Amrinone] | 1.66 ± 0.216% | 2.303 ± 0.284%
2 | C[C@@H]1CC(=O)NN=C1c1ccc(NN=C(C#N)C#N)cc1 [Levosimendan] | 18.29 ± 3.122% | 25.06 ± 5.289%
